What all share (format): biochemical
The target of test [1] is T1, Caspase 3 (Homo sapiens, UniProt P42574).
T1 sequence (P42574 29-175 limits assumed): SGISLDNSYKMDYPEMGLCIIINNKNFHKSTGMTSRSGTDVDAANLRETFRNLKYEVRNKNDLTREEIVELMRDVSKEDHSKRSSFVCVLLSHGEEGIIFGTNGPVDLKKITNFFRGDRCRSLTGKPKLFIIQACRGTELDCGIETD
T1 sequence (P42574 176-277 limits assumed): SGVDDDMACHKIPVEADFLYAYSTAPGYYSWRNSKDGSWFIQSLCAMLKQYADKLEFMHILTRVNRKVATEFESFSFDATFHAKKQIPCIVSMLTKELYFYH
The test can be described thus: Irreversible inhibitor kinetic assay (progress curve), caspase-3, substrate Ac-DEVD-AMC. Also on record: gift: Guy Salvesen's laboratory, Burnham Institute (La Jolla, Calif.). The following applies: casp-3; duplicate, SD included. An excerpt: (§1) Caspases-3, -6, -7, -8, and -9 were provided by Guy Salvesen's laboratory at the Burnham Institute (La Jolla, Calif.). Caspase-1 was purchased from EMD Biosciences (San Diego, Calif.) and Caspase-2 was purchased from Biomol International (Plymouth Meeting, Pa.). Caspase substrates Ac-DEVD-AMC, Ac-VDVAD-AFC, and Ac-LEHD-AFC were purchased from EMD Biosciences (San Diego, Calif.) and Ac-VDVAD-AMC was purchased from Biomol International (Plymouth Meeting, Pa.). The proteolytic cleavage of N-acyl aminocoumarins by caspases was conducted in Dynatech Microfluor fluorescence 96-well microtiter plates, and readings were taken on a Molecular Devices Spectra Max Gemini XS instrument. The excitation wavelength was 370 nm and the emission wavelength was 455 nm for AMCA substrates, the excitation wavelength was 355 nm and the emission wavelength was 450 nm for peptidyl AMC substrates, and the excitation wavelength was 430 nm and the emission wavelength was 535 nm for peptidyl AFC substrates.
(§2) The kinact/Ki for inhibitors were determined under pseudo-first order conditions using the progress curve method (Eckici et al. (2006) J. Med. Chem., 49: 5728-5749; Bieth (1995) Meth. Enzymol., 248: 59-84). Assay wells contained a mixture of inhibitor and AMC or AFC substrate in buffer. Aliquots of caspase were added to each well to initiate the assay. Hydrolysis of the AMC or AFC substrate was monitored fluorometrically for 45 min. To determine the inhibition parameters, time points for which the control ([I]=0) was linear were used. For each inhibitor, a kobs was calculated for at least four different concentrations of inhibitors via a nonlinear regression of the data according to the equation P=(vi/kobs)[1−exp(−kobst) (where product formation=P, […], and the first-order rate constant=kobs). If kobs varied linearly with [I], then the association constant kass was determined by linear regression analysis using kobs=(kass[I])/(1+[S]/Km) where [S] is the concentration of the substrate. […] Inhibition was measured in duplicate and the average of is reported. […]

For test [2], the target named is T2, caspase-5 (Homo sapiens, UniProt P51878).
T2 sequence (P51878 137-327 limits assumed): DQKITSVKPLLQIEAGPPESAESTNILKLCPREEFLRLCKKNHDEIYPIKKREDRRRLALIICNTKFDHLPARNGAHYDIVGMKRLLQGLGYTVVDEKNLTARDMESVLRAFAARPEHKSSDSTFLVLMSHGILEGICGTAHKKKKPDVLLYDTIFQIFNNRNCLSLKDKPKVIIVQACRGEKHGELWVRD
T2 sequence (P51878 347-434 limits assumed): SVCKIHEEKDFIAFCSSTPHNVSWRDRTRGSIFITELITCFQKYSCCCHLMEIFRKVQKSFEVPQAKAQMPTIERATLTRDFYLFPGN
The test can be described thus: Irreversible inhibitor kinetic assay (progress curve), caspase-5, substrate Ac-WEHD-AMC. The following applies: casp-5; duplicate, SD included.
Description: as §1, §2

Test [3] addresses T3, caspase-1 (Homo sapiens, UniProt P29466).
T3 construct: purchased EMD Biosciences (San Diego, Calif.)
T3 sequence (P29466 120-297 limits assumed): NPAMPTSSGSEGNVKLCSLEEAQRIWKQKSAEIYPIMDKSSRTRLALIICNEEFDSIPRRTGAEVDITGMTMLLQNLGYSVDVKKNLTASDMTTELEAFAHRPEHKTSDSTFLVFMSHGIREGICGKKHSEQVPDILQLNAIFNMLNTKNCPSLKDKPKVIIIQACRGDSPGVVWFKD
T3 sequence (P29466 317-404 limits assumed): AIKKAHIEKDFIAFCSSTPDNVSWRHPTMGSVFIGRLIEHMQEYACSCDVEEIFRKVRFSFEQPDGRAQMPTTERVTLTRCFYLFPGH
As to the kind of experiment: Irreversible inhibitor kinetic assay (progress curve), caspase-1, substrate Ac-WEHD-AMC. The conditions noted are these: casp-1; duplicate, SD included.
Description: as §1, §2

As for `C[C@@](NS(=O)(=O)Cc1ccccc1)(c1cn([C@@H](CC(=O)O)C(=O)COc2c(F)c(F)cc(F)c2F)nn1)C1CCCCC1` [MJL-001i], the kinact/Ki was 47,000 ± 1,400 s^−1/M^−1 in test [1], 2,250 ± 350 s^−1/M^−1 in test [2] and 55,200 ± 2,600 s^−1/M^−1 in test [3].

As for `C[C@@](NC(=O)CCCC(=O)O)(c1cn([C@@H](CC(=O)O)C(=O)COc2c(F)c(F)cc(F)c2F)nn1)C1CCCCC1` [MJL-002i], the kinact/Ki in test [1] is 81,700 ± 6,900 s^−1/M^−1; in test [2] it was 16,500 ± 850 s^−1/M^−1; in test [3], 243,250 ± 350 s^−1/M^−1.

For `C[C@@](NC(=O)Cc1ccccc1)(c1cn([C@@H](CC(=O)O)C(=O)COc2c(F)c(F)cc(F)c2F)nn1)C1CCCCC1` [MJL-003i], the results for the kinact/Ki in test [1], in test [2] and in test [3] were 29,850 ± 850 s^−1/M^−1, 3,300 ± 200 s^−1/M^−1 and 55,200 ± 200 s^−1/M^−1, respectively.
